Article PMC8912008, “Pharmacokinetic Study of Withanosides and Withanolides from Withania somnifera Using Ultra-High Performance Liquid Chromatography-Tandem Mass Spectrometry (UHPLC-MS/MS)” (Molecules, 2022)

Experiments:
in vitro = conditions: rat
[1] = Stability of analytes in rat plasma; conditions: n = 6; for Processed sample stability (% ± SD): processed rat plasma sample, 4 h; for Bench top Stability (% ± SD) / Autosampler stability (% ± SD) / Freeze-thaw stability (% ± SD): rat plasma; for Bench top Stability (% ± SD): 25 °C for 4 h; for Freeze-thaw stability (% ± SD): three freeze/thaw cycles
[2] = In vivo pharmacokinetic study after oral WSE
Excerpt: It is known that the hydrophobic interior surface of the cell membrane (lipid bilayer) serves as a barrier to the passage of polar and high molecular weight molecules.
Food pellets and tap water were provided ad libitum throughout the experimentation. The protocol to carry out in vivo pharmacokinetics was approved by The Institutional Animal Ethics Committee (IAEC) of Crystal Biological Solution, Pune, Maharashtra, India. […] Eighteen animals were subdivided into three groups, (n = 6) animals in each group. Withania somnifera extract suspension was prepared in water for oral administration, and the dose was calculated based on the acute oral toxicity study (500 mg/kg; single dose). […] The separated plasma samples were transferred into Eppendorf tubes and stored at −80 °C in a deep freezer until analysis. Ten pharmacokinetic parameters were determined using PK solver 2.0, USA [45, 46, 47]. The maximum observed concentration (Cmax) and maximum observed time (Tmax) were calculated directly from the experimental results. The elimination rate constant (Kel) was calculated from the slope of the linear regression of Log concentrations as a function of time. […] The area under the curve (AUC(0–t)) was calculated from the linear curve following the trapezoidal rule, while AUC(0–∞) was calculated by adding Ct/λ, with Ct being the final measurable concentration. Oral clearance (Cl/F) was obtained from the equation Cl/F = dose/AUC(0–∞). Mean residence time (MRT) was calculated as AUMC(0–∞)/AUC(0–∞), where AUMC(0–∞) is the area under the first moment curve. […] The pharmacokinetic parameters as the average of six rats ± SD. The mean plasma concentration Vs. time curve (mean ± SD) was prepared using Prism 8.2, (GraphPad, San Diego, CA, USA).

[3] = high QC (nominal 200.50-201.50 ng/mL)
[4] = low QC (nominal 10.05-10.50 ng/mL)
[5] = male, Sprague Dawley, rat, in vivo, po, 500 mg/kg

SMILES	Papp at 1 h, 2 mg/mL (in vitro) [×10⁻⁶ cm/s]	Processed sample stability (% ± SD) [1, 3] [%]	Processed sample stability (% ± SD) [1, 4] [%]	Bench top Stability (% ± SD) [1, 3] [%]	Bench top Stability (% ± SD) [1, 4] [%]	Autosampler stability (% ± SD) [1, 3] [%]	Autosampler stability (% ± SD) [1, 4] [%]	Freeze-thaw stability (% ± SD) [1, 3] [%]	Freeze-thaw stability (% ± SD) [1, 4] [%]	concentration in plasma ([2]; rat plasma after WSE 500 mg/kg oral, LLOQ 3 ng/mL)	AUC(0-inf) [2, 5] [ng·h/mL]	AUC(0-t) [2, 5] [ng·h/mL]	Cmax [2, 5] [ng/mL]	MRT inf [2, 5] [h]	Tmax [2, 5] [h]	half-life [2, 5] [h]	k el [2, 5] [s⁻¹]	Cl/F (oral clearance) ([2]; rat, in vivo, po, 500 mg/kg)	Vdapp (mean apparent volume of distribution) ([2]; rat, in vivo, po, 500 mg/kg)	oral clearance (Cl/F) ([2]; rat, in vivo, po, 500 mg/kg)
CC1=C(C)C(=O)O[C@@H]([C@@H](C)[C@H]2CC[C@H]3[C@@H]4[C@@H]5O[C@@H]5[C@@]5(O)CC=CC(=O)[C@]5(C)[C@H]4CC[C@]23C)C1 [Withanolide B]	0.0131	95.01 ± 5.83	113.48 ± 47.73	96.83 ± 6.66	95.51 ± 5.04	97.26 ± 3.36	98.84 ± 4.54	93.48 ± 6.55	116.31 ± 36.76											
CC1=C(C)C(=O)O[C@@H]([C@@H](C)[C@@]2(O)CC[C@H]3[C@@H]4[C@@H]5O[C@@H]5[C@@]5(O)CC=CC(=O)[C@]5(C)[C@H]4CC[C@@]32C)C1 [Withanone]	0.0317	99.56 ± 4.91	112.07 ± 37.93	98.87 ± 9.47	96.31 ± 6.27	111.25 ± 4.86	109.47 ± 4.01	98.14 ± 4.74	104.24 ± 7.98	below LLOQ										
CC1=C(CO)C(=O)O[C@@H]([C@@H](C)[C@H]2CC[C@H]3[C@@H]4CC=C5C[C@@H](O[C@@H]6O[C@H](CO[C@@H]7O[C@H](CO)[C@@H](O)[C@H](O)[C@H]7O)[C@@H](O)[C@H](O)[C@H]6O)C[C@H](O)[C@]5(C)[C@H]4CC[C@]23C)C1 [Withanoside IV]	0.142	101.10 ± 9.54	104.41 ± 4.84	100.34 ± 10.45	104.41 ± 4.84	111.61 ± 0.88	108.21 ± 2.00	98.95 ± 5.47	104.78 ± 5.59		22.9 ± 5.73	14 ± 3.7	13.8 ± 3.73	2.08 ± 0.394	0.75	1.1 ± 0.272	0.000182	0.176 ± 0.037	0.278 ± 0.083	0.176 ± 0.037 (mg/kg)/(ng/mL)/h
CC1=C(C)C(=O)O[C@@H]([C@@H](C)[C@H]2CC[C@H]3[C@@H]4CC=C5C[C@@H](O[C@@H]6O[C@H](CO[C@@H]7O[C@H](CO)[C@@H](O)[C@H](O)[C@H]7O)[C@@H](O)[C@H](O)[C@H]6O)C[C@H](O)[C@]5(C)[C@H]4CC[C@]23C)C1 [Withanoside V]	0.0343	90.47 ± 6.50	134.85 ± 90.10	91.74 ± 8.97	99.58 ± 8.68	111.25 ± 4.54	109.83 ± 8.35	99.38 ± 6.58	105.13 ± 6.95											
